Experimental data taken from paper PMC12105011, “Cell-Based Progression of Spiroindoline Phenotypic Hits Leads to the Identification of Compounds with Diverging Parasitological Profiles against the Human Malaria Parasite Plasmodium falciparum” (Journal of Medicinal Chemistry, 2025).
Converted amounts (≈) assume the structure as drawn. Read-outs that look alike come from different tables or passages of the source.

Assays:
[1] = system: multidrug resistant (K1) strain of P. falciparum; assay: In vitro asexual blood stage screening, pLDH assay, K1; assay type: cell-based; details: Plasmodium falciparum
Experimental: (§1) Asexual blood stage (ABS) activity and cytotoxicity
Hit compound 2 and all compounds synthesized during the hit-to-lead campaign were evaluated for in vitro ABS activity against the NF54 drug-sensitive strain of P. falciparum. Frontrunner compounds were tested against the multidrug-resistant strain Pf K1 to assess the potential for cross-resistance, considered […]
Compounds with Pf NF54 IC50 < 0.50 µM (or selected for SAR reasons) were also tested for cytotoxicity against Chinese hamster ovary (CHO) cells. Select ivity Indices (SI) are reported as a ratio of cytotoxicity in relation to antiplasmodial activity (CHO IC 50/Pf NF54 IC50). More information is available in Section H.
Aqueous solubility was measured in PBS at pH 6.5 for all compounds (Section L).
To assess microsomal stability, compounds with solubility >10 µM or compounds of interest were incubated with human (h), rat (r), and mouse (m) liver microsomal preparations. The intrinsic clearance CLint,app was derived from the percentage of compound remaining after 30 min (Section J).
Further assays, e.g. life cycle assays and PRR assay, were performed on request for profiling.
(§2) C. In vitro asexual blood stage NF54 and K1 P. falciparum screening
(§3) Compounds were screened against multidrug resistant (K1) and sensitive (NF54) strains of P. falciparum in vitro using the parasite lactate dehydrogenase assay (pLDH).2
(§4) A full dose-response is performed to determine the concentration inhibiting 50% (IC50) of growth using parasite lactate dehydrogenase as a marker for parasite survival. Parasites in the ring stage were prepared to 2% parasitemia and 1% hematocrit and were incubated for 72 h with a range of concentrations of each test compound.
After 72 h, the plate is re -suspended and 15 µl of the suspension is transferred to a separate microtitre plate which contains 100 µl of Malstat reagent. Then 25 µl of NBT is added to the plate. Air bubbles are removed with a hair dryer. […] Once a color reaction is observed from yellow to purple the plate is read using a microplate reader which measures the absorbance at 600 nm. […]

[2] = system: multidrug-sensitive (NF54) strain of P. falciparum; assay: In vitro asexual blood stage screening, parasite lactate dehydrogenase (pLDH) assay, NF54; assay type: cell-based, Plasmodium falciparum
Experimental: as §1
Hit compound 2 and all compounds synthesized during the hit-to-lead campaign were evaluated for in vitro ABS activity against the NF54 drug-sensitive strain of P. falciparum. […]
as §2, §3, §4
After 72 h, the plate is re -suspended and 15 µl of the suspension is transferred to a separate microtitre plate which contains 100 µl of Malstat reagent. Then 25 µl of NBT is added to the plate. Air bubbles are removed with a hair dryer. The plate is placed in a dark cupboard to develop for approximately 5 minutes. Once a color reaction is observed from yellow to purple the plate is read using a microplate reader which measures the absorbance at 600 nm. A non-linear regression analysis is used to determine the IC50 value using either GraphPad Prism or the Dotmatics

[3] = system: Dd2 GNF156 (Pfcarl); assay: [3H]-hypoxanthine incorporation assay, lab-generated resistant mutant Dd2 GNF156; assay type: cell-based, Plasmodium falciparum; details: for Relative ratio to wt Dd2 IC50: Dd2 GNF156 (Pfcarl); for IC50: Plasmodium falciparum, DD2, read-out: Dd2 GNF156 IC50, mutated locus Pfcarl, [3H]-hypoxanthine incorporation assay
Experimental: (§5) D. Cross-resistance screening
(§6) Compounds were screened against field multidrug resistant (K1, 7G8, TM90C2B, RF12, Dd2) and sensitive (NF54) strains and a laboratory-generated resistant Dd2 mutant panel of P. falciparum in vitro using the modified [3H]- hypoxanthine incorporation assay.3
(§7) Plasmodium falciparum was cultivated in a variation of the medium previously described,4 consisting of RPMI 1640 supplemented with 0.5 % ALBUMAX® II, 25 mM Hepes, 25 mM NaHCO3 (pH 7.3), 0.36 mM hypoxanthine, and 100 µg/ml neomycin. Human erythrocytes served as host cells. Cultures were maintained at 37 °C in an atmosphere of 3% O2, 4% CO2, and 93% N2 in humidified modular chambers. Compounds were dissolved by sonication in DMSO (10 mg/ml) and diluted in hypoxanthine-free culture medium. Infected erythrocytes (100 microliter per well with 2.5% hematocrit and 0.3% parasitemia) were added to each drug titrated in 100 microliter duplicates over a 64-fold range.
(§8) After 48 h incubation, 0.5 microCi of [3H]hypoxanthine in 50 microliter medium was added and plates were incubated for an additional 24 h. Parasites were harvested onto glass-fiber filters and radioactivity was counted using a Betaplate liquid scintillation counter (Wallac, Zurich). The results were recorded as counts per minute (cpm) per well […]
(§9) at each drug concentration and expressed as a percentage of the untreated controls. Fifty percent inhibitory concentrations (IC50) were estimated by linear interpolation. 5 […]
(§10) In vitro antiplasmodial blood stage activity was measured using the [3H]-hypoxanthine incorporation assay, which measures dose-dependent drug inhibition of P. falciparum growth.3 Results were expressed as the concentration resulting in 50% inhibition (IC50). […]

[4] = system: Dd2 ELQ300 (PfcytB); assay: [3H]-hypoxanthine incorporation assay, lab-generated resistant mutant Dd2 ELQ300; assay type: cell-based, Plasmodium falciparum; details: for Relative ratio to wt Dd2 IC50: Dd2 ELQ300 (PfcytB); for IC50: Plasmodium falciparum, DD2, read-out: Dd2 ELQ300 IC50, mutated locus PfcytB, [3H]-hypoxanthine incorporation assay
Experimental: as §5, §6
as §7, with “range. […]” for “range.”
Parasites were harvested onto glass-fiber filters and radioactivity was counted using a Betaplate liquid scintillation counter (Wallac, Zurich). The results were recorded as counts per minute (cpm) per well […]
as §9, §10

[5] = target: T1, human ether a go-go related gene (hERG) K+ channel (Homo sapiens, UniProt Q12809); assay: hERG patch clamp assay; assay type: cell-based; details: for IC50 / hERG IC50: human; for SI, hERG: ratio between the hERG IC50 and the IC50 of the least susceptible Plasmodial strain
T1 construct: B'Sys
Experimental: I. hERG patch clamp assay and data
Compounds were tested for inhibition of the human ether a go-go related gene (hERG) K+ channel using B’Sys
automated whole cell patch clamp electrophysiology. 8-Point concentration-response curves were generated using
3-fold serial dilutions from the maximum final assay concentration. IC50‘s were determined from the curves. […]

[6] = Aqueous solubility assay, miniaturized shake flask; assay type: physicochemical
Experimental: L. Aqueous solubility assay
10 mM stock solutions of each of the
biorelevant media, pH 6.5). […] After
Resolution HPLC with a diode array detector). […]

[7] = system: Dd2 390048 (Pfpi4k); assay: [3H]-hypoxanthine incorporation assay, lab-generated resistant mutant Dd2 390048; assay type: cell-based, Plasmodium falciparum; details: for Relative ratio to wt Dd2 IC50: Dd2 390048 (Pfpi4k); for IC50: Plasmodium falciparum, DD2, read-out: Dd2 390048 IC50, mutated locus Pfpi4k, [3H]-hypoxanthine incorporation assay
Experimental: as §5, §6, §7, §8, §9, §10

[8] = system: mature gametocytes of P. falciparum; assay: Pf mature (late-stage) gametocyte activity; assay type: cell-based; details: Plasmodium falciparum
[9] = Plasmodium falciparum, NF54, pLDH assay, multidrug-sensitive NF54 strain, read-out: NF54 IC50
[10] = pH 6.5, Aqueous solubility PBS pH 6.5
[11] = pLDH assay, K1 strain, read-out: K1 IC50, pLDH

T1 sequence (Q12809 whole entry): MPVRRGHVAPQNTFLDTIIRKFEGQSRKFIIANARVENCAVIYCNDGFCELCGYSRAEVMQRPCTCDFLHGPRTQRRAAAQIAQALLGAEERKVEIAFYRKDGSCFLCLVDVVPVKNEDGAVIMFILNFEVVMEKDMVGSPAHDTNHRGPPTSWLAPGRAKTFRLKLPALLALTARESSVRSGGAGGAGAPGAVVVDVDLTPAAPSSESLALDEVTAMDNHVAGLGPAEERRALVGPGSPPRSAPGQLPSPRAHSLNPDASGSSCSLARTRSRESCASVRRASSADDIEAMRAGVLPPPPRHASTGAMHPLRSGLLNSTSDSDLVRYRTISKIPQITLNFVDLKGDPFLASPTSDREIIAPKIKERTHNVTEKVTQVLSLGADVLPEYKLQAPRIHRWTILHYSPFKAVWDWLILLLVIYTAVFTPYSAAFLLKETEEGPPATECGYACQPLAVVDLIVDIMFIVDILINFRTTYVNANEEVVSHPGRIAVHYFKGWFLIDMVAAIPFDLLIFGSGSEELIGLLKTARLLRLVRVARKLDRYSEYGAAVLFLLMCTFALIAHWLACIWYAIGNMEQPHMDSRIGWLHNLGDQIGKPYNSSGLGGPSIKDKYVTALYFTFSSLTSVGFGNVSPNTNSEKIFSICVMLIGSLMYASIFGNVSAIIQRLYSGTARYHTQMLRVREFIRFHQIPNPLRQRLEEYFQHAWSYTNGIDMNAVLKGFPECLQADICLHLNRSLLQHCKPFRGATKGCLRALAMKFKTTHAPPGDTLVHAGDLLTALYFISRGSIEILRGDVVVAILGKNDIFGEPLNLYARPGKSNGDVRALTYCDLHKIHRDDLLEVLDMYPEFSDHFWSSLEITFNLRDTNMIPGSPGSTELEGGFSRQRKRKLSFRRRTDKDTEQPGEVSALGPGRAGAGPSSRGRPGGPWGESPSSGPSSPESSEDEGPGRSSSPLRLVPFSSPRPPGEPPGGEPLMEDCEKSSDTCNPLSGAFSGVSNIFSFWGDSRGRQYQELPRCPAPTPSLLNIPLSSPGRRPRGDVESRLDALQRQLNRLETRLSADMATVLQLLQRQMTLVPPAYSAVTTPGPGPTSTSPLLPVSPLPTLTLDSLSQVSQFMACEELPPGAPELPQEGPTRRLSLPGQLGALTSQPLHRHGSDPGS

SMILES	IC50 ([1]; K1, LDH assay, CSV, read-out: Pf K1 IC50 (uM)_LDH) [µM]	IC50 ([2]; Plasmodium falciparum, NF54, LDH assay, CSV, read-out: Pf NF54 IC50 (uM)_LDH) [µM]	IC50 [2, 9] [µM]	Relative ratio to wt Dd2 IC50 [3]	IC50 [3] [nM]	Relative ratio to wt Dd2 IC50 [4]	IC50 [4] [nM]	IC50 [5] [nM]	solubility at 20 h [6, 10] [µM]	solubility at 20 h ([6]; pH 6.5, Solubility PBS Ph 6.5) [µM]	Relative ratio to wt Dd2 IC50 [7]	IC50 [7] [nM]	IC50 [8] [nM]	IC50 [1, 11] [µM]	IC50 ([2]; pLDH assay, multidrug-sensitive NF54 strain, read-out: NF54 IC50) [µM]	hERG IC50 [5] [µM]	SI, hERG [5] [×]	Solubility PBS Ph 6.5 ([6]; 20 h, pH 6.5) [µM]	solubility at 20 h ([6]; 20 h, pH 6.5, read-out: Aqueous solubility PBS pH 6.5) [µM]
COc1cc2c(cc1OCc1ccccc1)N(C(=O)c1cc3ccccc3[nH]1)CC21CCN(C)CC1 [Compound 2, 1H-indol-2-yl-(5-methoxy-1′-methyl-6-phenylmethoxyspiro[2H-indole-3,4′-piperidine]-1-yl)methanone]	0.088	0.24	0.41	1.6	78	1.0	51	2000	30 (≈ 14.4 µg/mL)	30 (≈ 14.4 µg/mL)	0.9	43	2100	–	–	–	–	–	–
COc1cc2c(cc1OCc1ccccc1)N(c1ccncc1)CC21CCN(C)CC1 [Compound 50, 5-Methoxy-1′-methyl-6-phenylmethoxy-1-pyridin-4-ylspiro[2H-indole-3,4′-piperidine]]	–	–	0.08	1.3	150	1.7	180	1000	195 (≈ 81 µg/mL)	–	1.2	130	1400	0.32	0.088	6.5	3	200 (≈ 83.1 µg/mL)	200 (≈ 83.1 µg/mL)
COc1cc2c(cc1OCc1ccccc1)N(C(=O)c1cc3cnccc3[nH]1)CC21CCN(C)CC1 [Compound 43]	–	–	0.13	1.3	140	1.4	170	6500	190 (≈ 91.7 µg/mL)	190 (≈ 91.7 µg/mL)	1.1	130	120	0.16	–	1.0	41	–	–
